Measured values published in US6495517B2, “Cyclooxygenase inhibitor” (A. Natterman & Cie. GmbH, priority 1998, dated 2002).

Experiments:
[1] = LD50 determination, intraperitoneal administration; conditions: mouse, in vivo, ip
rat = experiment: LD50 determination in rats; format: in vivo
[2] = target: T1, Cyclooxygenase 2 derived from sheep placentae (Ovis aries, UniProt P79208); experiment: In vitro inhibition of cyclooxygenase 2 activity (synthesis of prostaglandin H2 from 14C-arachidonic acid, TLC autoradiography); conditions: sheep placenta COX-2, 35° C., 30 min
T1 sequence (P79208 17-603): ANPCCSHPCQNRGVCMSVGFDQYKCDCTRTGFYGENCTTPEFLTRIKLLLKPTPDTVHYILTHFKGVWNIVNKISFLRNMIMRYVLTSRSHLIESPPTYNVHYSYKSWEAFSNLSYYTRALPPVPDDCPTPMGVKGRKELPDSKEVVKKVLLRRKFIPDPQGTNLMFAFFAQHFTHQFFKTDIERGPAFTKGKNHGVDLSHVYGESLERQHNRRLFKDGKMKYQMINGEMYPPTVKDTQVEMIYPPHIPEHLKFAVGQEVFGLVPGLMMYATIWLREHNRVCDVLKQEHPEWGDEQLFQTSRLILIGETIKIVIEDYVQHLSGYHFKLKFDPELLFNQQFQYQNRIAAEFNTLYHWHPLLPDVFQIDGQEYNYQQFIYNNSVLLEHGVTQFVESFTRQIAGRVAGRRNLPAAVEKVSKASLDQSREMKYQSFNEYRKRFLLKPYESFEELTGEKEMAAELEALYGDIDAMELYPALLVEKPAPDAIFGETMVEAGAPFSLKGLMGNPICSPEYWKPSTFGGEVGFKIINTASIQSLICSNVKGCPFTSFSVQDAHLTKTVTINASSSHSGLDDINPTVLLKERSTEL
Description: Arachidonic acid was used as the substrate in the present example. Ten μl of arachidonic acid was dissolved in methanol (10 mg/ml) and mixed with 5 μCi of ^14C-labeled arachidonic acid; and to obtain a dried substrate, the solvent was evaporated by blowing with nitrogen gas at room temperature. Subsequently, the substrate was dissolved in 50 μl of dimethylsulfoxide (DMSO), and 10 ml of 5 mM Tris-HCl buffer (pH 8.0) containing 2 mM phenol was added to the substrate solution, followed by sonication to completely dissolve the sample. Separately, test compounds having final concentrations of 0.1-10 μM were prepared. […] Five μl of each compound solution was added to 5 μl of the above substrate solution, followed by mixing. The samples were then preincubated at 35° C. for about 10 min. Cyclooxygenase 2 derived from sheep placentae (Cayman Chem.) had been separately diluted 10-fold with the above buffer, and 20 μl of the enzyme solution was added to each of the above samples. The enzyme reaction was carried out at 35° C. for 30 min, and stopped by adding 0.5 ml of ice-cold ethanol to each sample. Then, to 0.9 ml of each sample, 2.0 ml of 2% acetic acid solution was added. Arachidonic acid and its metabolite prostaglandin H2 were then extracted with 3.0 ml of ethyl acetate. From each extracted sample, a 2.0-ml portion was transferred to a new test tube. The solvent was distilled off from the transferred samples under reduced pressure, and the samples were dried in vacuo. Then each dried sample was dissolved in 100 μl of methanol, out of which 5 μl was subjected to analysis by high resolution thin layer chromatography. Arachidonic acid and its metabolite prostaglandin H2 were separated by chromatography with a developing solution of chloroform, ethyl acetate, methanol, acetic acid and water in proportions of 70:30:8:1:0.5 (v/v). The chromatography plate, together with a ^14C-standard substance, was exposed to an imaging plate (Fuji Film), and was analyzed with Fuji Film Bio-Image analyzer BAS-2000 to obtain an autoradiogram. By scanning of spots corresponding to the standard radioactive samples, a standard dose-response curve was plotted. Then, by use of the standard curve, each scanned value of arachidonic acid spots and prostaglandin H2 spots was converted to a amount of radiation. Indomethacin was purchased from Sigma, and PZ25 was a gift from Rhone-Poulenc Rorer.

[3] = LD50 determination, oral administration; conditions: mouse, in vivo

Structure (SMILES)	LD50 [1] [mg/kg]	LD50 (rat)	Generated Amount of Prostaglandin H2 (%) ([2]; dose of compound 1 μM)	Generated Amount of Prostaglandin H2 (%) ([2]; dose of compound 3 μM)	Generated Amount of Prostaglandin H2 (%) ([2]; dose of compound 10 μM)	Generated Amount of Prostaglandin H2 (%) ([2]; dose of compound 30 μM)	LD50 [3] [mg/kg]
O=c1c2ccccc2[se]n1-c1ccccc1 [Compound A, 2-phenyl-1,2-benzisoselenazol-3(2H)-one]	740	large doses were required	91.8 ± 14.3	78.6 ± 5.28	46.88 ± 6.49	20.10 ± 1.95	≥ 6810
O=c1c2ccccc2sn1-c1ccccc1 [PZ25, 2-phenyl-1,2-benzisothiazol-3(2H)-one, reference compound]	–	–	–	103.25 ± 9.29	103.53 ± 11.2	93.9 ± 9.06	–
